In brackets after ≈: the same amount, converted by molar mass.
Experiments:
PDE V isoenzyme = PDE V isoenzyme (Homo sapiens, UniProt O76074); test: PDE V isoenzyme inhibition; assay type: biochemical; conditions: concentration required to provide 50% inhibition of PDE V isoenzyme
Text: Forms 1 and 2 of Compound 13 are each useful for inhibiting PDE V isoenzymes. Their isoenzyme activities (potencies) and isoenzyme selectivities can be measured by the PDE V IC50 value, which is the concentration (in nM) of compound required to provide 50% inhibition of PDE V isoenzyme. […] Similarly, an IC50 value may be obtained for other PDE isoenzymes, such as the PDE VI isoenzyme. Isoenzyme selectivity in this respect may be defined as the activity of a PDE inhibitor compound for a particular PDE isoenzyme as opposed to another PDE isoenzyme, for example, the activity of a compound to inhibit a PDE V isoenzyme compared to the activity of the same compound to inhibit a PDE VI isoenzyme.

[1] = Water solubility of the polymorphs; assay type: physicochemical
[2] = Thermodynamic stability of the polymorphs; assay type: physicochemical; conditions: at process temperatures
Protocol: The two polymorphs also further differ in their water solubilities (Form 1: about 50 μg/mL vs. Form 2: about 30 μg/mL). […] Form 1 can equilibrate to Form 2 when slurried in one of the Form 2 crystallizing solvents (e.g., alcohol, nitrile, ester, etc.). For example, when a mixture of Form 1 of Compound 13 and Form 2 of Compound 13 is suspended in an organic crystallizing solvent (e.g., ethyl acetate, isopropanol, acetonitrile, and the like), and stored for an extended period of time (e.g., greater than or equal to about 10 hours), the Form 1 component of the mixture will convert to Form 2 of Compound 13.

IC50 (PDE V isoenzyme) [nM] | solubility [1] [µg/mL] | water solubility [1] | SMILES | thermodynamic stability [2]
2 to 3 | ~50 (≈ 95.7 µM) | – | CCn1c(=O)c2c(nc(N[C@@H]3CCC[C@H]3O)n2Cc2ccc(OC)c(Br)c2)n(CCO)c1=O [Form 1 of Compound 13, 1-ethyl-3,7-dihydro-8-[(1R,2R) -(hydroxycyclopentyl)amino]-3-(2-hydroxyethyl)-7-[(3-bromo-4-methoxyphenyl)methyl]-1H-Purine-2,6-dione] | –
– | – | about 30 μg/mL | CCn1c(=O)c2c(nc(N[C@@H]3CCC[C@H]3O)n2Cc2ccc(OC)c(Br)c2)n(CCO)c1=O [Form 2 of Compound 13, 1-ethyl-3,7-dihydro-8-[(1R,2R) -(hydroxycyclopentyl)amino]-3-(2-hydroxyethyl)-7-[(3-bromo-4-methoxyphenyl)methyl]-1H-Purine-2,6-dione] | more thermodynamically stable than Form 1 of Compound 13

— patent publication US7192962B2, “Xanthine phosphodiesterase V inhibitor polymorphs” (Schering Corporation, priority 2002, dated 2007)
